{"source": "the supplement of paper PMC10307832", "experiment_in_all_cases": "relative viability (nuclei count vs DMSO), 5 days (fraction); higher = more cells survive", "key": {"[1]": {"test_system": "A-427", "how_it_was_run": "(§1)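 Relative viability divides the nuclei count in treated wells by that in vehicle wells. Lung cancer cell lines were seeded in 1536-well plates, dosed by pin tool the next day, and fixed and stained after 5 days in one step with final 0.05% Triton X-100, 1% formaldehyde and 1 ug/ml Hoechst. Dosing was a single drug or a fixed anchor-drug dose plus five library-drug doses (not always all listed) in √10 steps, and values are medians of duplicate plates imaged at 4×.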"}, "[2]": {"test_system": "COR-L 105", "how_it_was_run": "as §1"}, "[3]": {"test_system": "ChaGo-K-1", "how_it_was_run": "as §1"}, "[4]": {"test_system": "EKVX", "how_it_was_run": "as §1"}, "[5]": {"test_system": "EMC-BAC-2", "how_it_was_run": "as §1"}, "[6]": {"test_system": "H3255", "how_it_was_run": "as §1"}, "[7]": {"test_system": "HCC-366", "how_it_was_run": "as §1"}, "[8]": {"test_system": "LOU-NH91", "how_it_was_run": "as §1"}, "[9]": {"test_system": "NCI-H1563", "how_it_was_run": "as §1"}, "[10]": {"test_system": "NCI-H1666", "how_it_was_run": "as §1"}, "[11]": {"test_system": "NCI-H1734", "how_it_was_run": "as §1"}, "[12]": {"test_system": "NCI-H1755", "how_it_was_run": "as §1"}, "[13]": {"test_system": "NCI-H1792", "how_it_was_run": "as §1"}, "[14]": {"test_system": "NCI-H1975", "how_it_was_run": "as §1"}, "[15]": {"test_system": "NCI-H23", "how_it_was_run": "as §1"}, "[16]": {"test_system": "NCI-H441", "how_it_was_run": "as §1"}, "[17]": {"test_system": "NCI-H520", "how_it_was_run": "as §1"}, "[18]": {"test_system": "NCI-H596", "how_it_was_run": "as §1"}, "[19]": {"test_system": "PC-3 [JPC-3]", "how_it_was_run": "as §1"}}}
{"smiles": "NC(=O)Nc1cc(-c2cccc(F)c2)sc1C(=O)N[C@H]1CCCNC1", "note": "[AZD7762] + CC(C)C[C@H](NC(=O)[C@H](Cc1ccccc1)NC(=O)c1cnccn1)B(O)O [Bortezomib] (partner 0.002 µM)", "values": [{"measurement": "relative viability", "setting": "[1]; first compound 0.01 µM", "result": 0.988}, {"measurement": "relative viability", "setting": "[1]; first compound 0.03162 µM", "result": 0.965}, {"measurement": "relative viability", "setting": "[1]; first compound 0.1 µM", "result": 0.989}, {"measurement": "relative viability", "setting": "[1]; first compound 0.3162 µM", "result": 1.04}, {"measurement": "relative viability", "setting": "[1]; first compound 1 µM", "result": 0.272}, {"measurement": "relative viability", "setting": "[2]; first compound 0.01 µM", "result": 0.904}, {"measurement": "relative viability", "setting": "[2]; first compound 0.03162 µM", "result": 0.803}, {"measurement": "relative viability", "setting": "[2]; first compound 0.1 µM", "result": 0.836}, {"measurement": "relative viability", "setting": "[2]; first compound 0.3162 µM", "result": 0.389}, {"measurement": "relative viability", "setting": "[2]; first compound 1 µM", "result": 0.356}, {"measurement": "relative viability", "setting": "[3]; first compound 0.01 µM", "result": 0.861}, {"measurement": "relative viability", "setting": "[3]; first compound 0.03162 µM", "result": 1.01}, {"measurement": "relative viability", "setting": "[3]; first compound 0.1 µM", "result": 0.961}, {"measurement": "relative viability", "setting": "[3]; first compound 0.3162 µM", "result": 0.958}, {"measurement": "relative viability", "setting": "[3]; first compound 1 µM", "result": 0.865}, {"measurement": "relative viability", "setting": "[4]; first compound 0.01 µM", "result": 0.996}, {"measurement": "relative viability", "setting": "[4]; first compound 0.03162 µM", "result": 1.04}, {"measurement": "relative viability", "setting": "[4]; first compound 0.1 µM", "result": 0.974}, {"measurement": "relative viability", "setting": "[4]; first compound 0.3162 µM", "result": 0.912}, {"measurement": "relative viability", "setting": "[4]; first compound 1 µM", "result": 0.688}, {"measurement": "relative viability", "setting": "[5]; first compound 0.01 µM", "result": 1.12}, {"measurement": "relative viability", "setting": "[5]; first compound 0.03162 µM", "result": 1.08}, {"measurement": "relative viability", "setting": "[5]; first compound 0.1 µM", "result": 1.09}, {"measurement": "relative viability", "setting": "[5]; first compound 0.3162 µM", "result": 1.15}, {"measurement": "relative viability", "setting": "[5]; first compound 1 µM", "result": 1.12}, {"measurement": "relative viability", "setting": "[6]; first compound 0.01 µM", "result": 0.818}, {"measurement": "relative viability", "setting": "[6]; first compound 0.03162 µM", "result": 0.852}, {"measurement": "relative viability", "setting": "[6]; first compound 0.1 µM", "result": 0.734}, {"measurement": "relative viability", "setting": "[6]; first compound 0.3162 µM", "result": 0.609}, {"measurement": "relative viability", "setting": "[6]; first compound 1 µM", "result": 0.59}, {"measurement": "relative viability", "setting": "[7]; first compound 0.01 µM", "result": 1.1}, {"measurement": "relative viability", "setting": "[7]; first compound 0.03162 µM", "result": 1.04}, {"measurement": "relative viability", "setting": "[7]; first compound 0.1 µM", "result": 1.03}, {"measurement": "relative viability", "setting": "[7]; first compound 0.3162 µM", "result": 0.62}, {"measurement": "relative viability", "setting": "[7]; first compound 1 µM", "result": 0.0941}, {"measurement": "relative viability", "setting": "[8]; first compound 0.01 µM", "result": 0.558}, {"measurement": "relative viability", "setting": "[8]; first compound 0.03162 µM", "result": 0.462}, {"measurement": "relative viability", "setting": "[8]; first compound 0.1 µM", "result": 0.487}, {"measurement": "relative viability", "setting": "[8]; first compound 0.3162 µM", "result": 0.548}, {"measurement": "relative viability", "setting": "[8]; first compound 1 µM", "result": 0.522}, {"measurement": "relative viability", "setting": "[9]; first compound 0.01 µM", "result": 0.843}, {"measurement": "relative viability", "setting": "[9]; first compound 0.03162 µM", "result": 0.963}, {"measurement": "relative viability", "setting": "[9]; first compound 0.1 µM", "result": 1.05}, {"measurement": "relative viability", "setting": "[9]; first compound 0.3162 µM", "result": 0.976}, {"measurement": "relative viability", "setting": "[9]; first compound 1 µM", "result": 0.746}, {"measurement": "relative viability", "setting": "[10]; first compound 0.01 µM", "result": 0.906}, {"measurement": "relative viability", "setting": "[10]; first compound 0.03162 µM", "result": 0.906}, {"measurement": "relative viability", "setting": "[10]; first compound 0.1 µM", "result": 1.13}, {"measurement": "relative viability", "setting": "[10]; first compound 0.3162 µM", "result": 0.848}, {"measurement": "relative viability", "setting": "[10]; first compound 1 µM", "result": 0.688}, {"measurement": "relative viability", "setting": "[11]; first compound 0.01 µM", "result": 0.912}, {"measurement": "relative viability", "setting": "[11]; first compound 0.03162 µM", "result": 1.04}, {"measurement": "relative viability", "setting": "[11]; first compound 0.1 µM", "result": 0.963}, {"measurement": "relative viability", "setting": "[11]; first compound 0.3162 µM", "result": 0.821}, {"measurement": "relative viability", "setting": "[11]; first compound 1 µM", "result": 0.527}, {"measurement": "relative viability", "setting": "[12]; first compound 0.01 µM", "result": 0.919}, {"measurement": "relative viability", "setting": "[12]; first compound 0.03162 µM", "result": 1.03}, {"measurement": "relative viability", "setting": "[12]; first compound 0.1 µM", "result": 1.05}, {"measurement": "relative viability", "setting": "[12]; first compound 0.3162 µM", "result": 0.926}, {"measurement": "relative viability", "setting": "[12]; first compound 1 µM", "result": 0.384}, {"measurement": "relative viability", "setting": "[13]; first compound 0.01 µM", "result": 0.982}, {"measurement": "relative viability", "setting": "[13]; first compound 0.03162 µM", "result": 0.941}, {"measurement": "relative viability", "setting": "[13]; first compound 0.1 µM", "result": 0.925}, {"measurement": "relative viability", "setting": "[13]; first compound 0.3162 µM", "result": 1.01}, {"measurement": "relative viability", "setting": "[13]; first compound 1 µM", "result": 1.04}, {"measurement": "relative viability", "setting": "[14]; first compound 0.01 µM", "result": 0.468}, {"measurement": "relative viability", "setting": "[14]; first compound 0.03162 µM", "result": 0.44}, {"measurement": "relative viability", "setting": "[14]; first compound 0.1 µM", "result": 0.417}, {"measurement": "relative viability", "setting": "[14]; first compound 0.3162 µM", "result": 0.399}, {"measurement": "relative viability", "setting": "[14]; first compound 1 µM", "result": 0.272}, {"measurement": "relative viability", "setting": "[15]; first compound 0.01 µM", "result": 1.26}, {"measurement": "relative viability", "setting": "[15]; first compound 0.03162 µM", "result": 0.986}, {"measurement": "relative viability", "setting": "[15]; first compound 0.1 µM", "result": 0.742}, {"measurement": "relative viability", "setting": "[15]; first compound 0.3162 µM", "result": 0.597}, {"measurement": "relative viability", "setting": "[15]; first compound 1 µM", "result": 0.284}, {"measurement": "relative viability", "setting": "[16]; first compound 0.01 µM", "result": 1.13}, {"measurement": "relative viability", "setting": "[16]; first compound 0.03162 µM", "result": 0.972}, {"measurement": "relative viability", "setting": "[16]; first compound 0.1 µM", "result": 0.313}, {"measurement": "relative viability", "setting": "[16]; first compound 0.3162 µM", "result": 0.456}, {"measurement": "relative viability", "setting": "[16]; first compound 1 µM", "result": 0.548}, {"measurement": "relative viability", "setting": "[17]; first compound 0.01 µM", "result": 0.471}, {"measurement": "relative viability", "setting": "[17]; first compound 0.03162 µM", "result": 0.659}, {"measurement": "relative viability", "setting": "[17]; first compound 0.1 µM", "result": 0.525}, {"measurement": "relative viability", "setting": "[17]; first compound 0.3162 µM", "result": 0.27}, {"measurement": "relative viability", "setting": "[17]; first compound 1 µM", "result": 0.289}, {"measurement": "relative viability", "setting": "[18]; first compound 0.01 µM", "result": 1.02}, {"measurement": "relative viability", "setting": "[18]; first compound 0.03162 µM", "result": 0.896}, {"measurement": "relative viability", "setting": "[18]; first compound 0.1 µM", "result": 1.13}, {"measurement": "relative viability", "setting": "[18]; first compound 0.3162 µM", "result": 1.2}, {"measurement": "relative viability", "setting": "[18]; first compound 1 µM", "result": 1.03}, {"measurement": "relative viability", "setting": "[19]; first compound 0.01 µM", "result": 0.886}, {"measurement": "relative viability", "setting": "[19]; first compound 0.03162 µM", "result": 0.88}, {"measurement": "relative viability", "setting": "[19]; first compound 0.1 µM", "result": 0.829}, {"measurement": "relative viability", "setting": "[19]; first compound 0.3162 µM", "result": 0.883}, {"measurement": "relative viability", "setting": "[19]; first compound 1 µM", "result": 0.785}]}
